Experimental data from publication PMC8213421 (CPT: Pharmacometrics & Systems Pharmacology, 2021).

How the values were obtained:
[1] = cited from earlier work
[2] = Venetoclax observed clinical PK; type: in vivo; details: human, plasma, oral
CYP3A4 [3] = details: multiple doses of rifampicin 600 mg q.d.; cited from earlier work
OATP1B1/1B3 = details: hepatic uptake, model; cited from earlier work
NTCP = details: hepatic uptake, model; cited from earlier work
CYP2B6 mRNA = assay: CYP induction in cultured human hepatocytes
OAT3 [4] = target: T1, OAT3 (Homo sapiens, UniProt Q8TCC7); details: cited from earlier work
T1 sequence (Q8TCC7 1-542): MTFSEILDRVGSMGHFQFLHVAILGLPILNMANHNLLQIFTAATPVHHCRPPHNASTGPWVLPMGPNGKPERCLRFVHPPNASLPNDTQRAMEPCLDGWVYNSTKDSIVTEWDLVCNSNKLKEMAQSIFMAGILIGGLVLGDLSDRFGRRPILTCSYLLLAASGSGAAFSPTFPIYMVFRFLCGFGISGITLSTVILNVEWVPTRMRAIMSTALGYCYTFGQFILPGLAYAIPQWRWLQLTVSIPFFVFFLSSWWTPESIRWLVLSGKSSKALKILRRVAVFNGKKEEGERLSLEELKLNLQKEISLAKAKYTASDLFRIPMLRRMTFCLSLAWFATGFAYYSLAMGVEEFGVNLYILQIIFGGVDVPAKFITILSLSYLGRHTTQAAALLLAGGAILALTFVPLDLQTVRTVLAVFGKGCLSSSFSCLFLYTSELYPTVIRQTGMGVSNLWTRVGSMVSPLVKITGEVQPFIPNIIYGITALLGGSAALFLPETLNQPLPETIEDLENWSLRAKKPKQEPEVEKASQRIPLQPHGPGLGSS

CYP3A4 [5] = details: human, in vivo, 600 mg, cited from earlier work
OAT3 [6] = details: read-out: OAT3 Ki; lowest reported value; cited from earlier work
CYP1A2 mRNA = assay: CYP induction in cultured human hepatocytes
CYP3A4 [7] = details: patients, cited from earlier work
human P‐gp = human P‐gp (Homo sapiens, UniProt P08183); assay: P-gp inhibition assay, bidirectional digoxin permeability in Caco-2 cells; type: cell-based
CYP3A4 mRNA [8] = assay: in vitro; details: human
CYP2C19 mRNA = assay: CYP induction in cultured human hepatocytes; details: all three hepatocyte cultures
OAT1 = target: T2, OAT1 (Homo sapiens, UniProt Q4U2R8); assay: Transporter inhibition in transfected HEK293 cells; type: cell-based
T2 sequence (Q4U2R8 1-563): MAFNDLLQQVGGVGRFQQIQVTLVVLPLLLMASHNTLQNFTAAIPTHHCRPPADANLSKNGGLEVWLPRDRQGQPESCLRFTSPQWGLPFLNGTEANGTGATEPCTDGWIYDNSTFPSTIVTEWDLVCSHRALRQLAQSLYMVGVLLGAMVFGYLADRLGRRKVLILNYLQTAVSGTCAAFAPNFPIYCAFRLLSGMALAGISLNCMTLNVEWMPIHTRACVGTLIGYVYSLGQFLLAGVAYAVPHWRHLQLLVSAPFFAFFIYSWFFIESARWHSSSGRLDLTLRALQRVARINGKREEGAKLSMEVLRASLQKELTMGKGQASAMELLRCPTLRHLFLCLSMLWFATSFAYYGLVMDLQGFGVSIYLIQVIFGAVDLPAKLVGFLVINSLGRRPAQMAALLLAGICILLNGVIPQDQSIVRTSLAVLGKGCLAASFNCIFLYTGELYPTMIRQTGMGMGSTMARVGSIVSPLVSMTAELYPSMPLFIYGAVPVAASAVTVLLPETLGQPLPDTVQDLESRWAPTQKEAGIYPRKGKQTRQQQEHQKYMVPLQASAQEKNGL

CYP3A4 [9] = assay: PBPK; set-up: species or system human; details: based on simulated midazolam results
CYP3A4 mRNA [10] = details: human, hepatocytes
OAT3 [11] = target: T1, OAT3; assay: Transporter inhibition in transfected HEK293 cells; type: cell-based
CYP2C8 mRNA = assay: CYP induction in cultured human hepatocytes
CYP3A4 [12] = details: ivosidenib PBPK model; cited from earlier work
OATP1B1 = target: T3, OATP1B1 (Homo sapiens, UniProt Q9Y6L6); assay: Transporter inhibition in transfected HEK293 cells; type: cell-based
T3 sequence (Q9Y6L6 1-691): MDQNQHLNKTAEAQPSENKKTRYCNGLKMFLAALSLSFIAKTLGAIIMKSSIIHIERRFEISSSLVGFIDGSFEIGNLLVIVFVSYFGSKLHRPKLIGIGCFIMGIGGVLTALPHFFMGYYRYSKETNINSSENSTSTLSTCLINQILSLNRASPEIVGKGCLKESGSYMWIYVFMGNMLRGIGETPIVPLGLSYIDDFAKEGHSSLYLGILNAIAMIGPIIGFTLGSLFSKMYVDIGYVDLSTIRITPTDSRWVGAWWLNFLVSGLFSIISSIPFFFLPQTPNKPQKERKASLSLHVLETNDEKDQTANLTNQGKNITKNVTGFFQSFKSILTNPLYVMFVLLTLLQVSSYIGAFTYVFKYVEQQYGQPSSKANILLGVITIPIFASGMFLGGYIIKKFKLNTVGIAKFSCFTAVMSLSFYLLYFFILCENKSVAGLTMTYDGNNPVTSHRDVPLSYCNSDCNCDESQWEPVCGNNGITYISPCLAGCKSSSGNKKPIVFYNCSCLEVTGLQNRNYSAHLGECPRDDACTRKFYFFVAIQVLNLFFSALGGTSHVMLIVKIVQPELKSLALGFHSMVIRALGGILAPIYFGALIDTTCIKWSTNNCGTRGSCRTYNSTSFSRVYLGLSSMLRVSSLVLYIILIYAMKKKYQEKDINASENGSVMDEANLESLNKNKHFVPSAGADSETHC

OATP1B3 = target: T4, OATP1B3 (Homo sapiens, UniProt Q9NPD5); assay: Transporter inhibition in transfected HEK293 cells; type: cell-based
T4 sequence (Q9NPD5 1-702): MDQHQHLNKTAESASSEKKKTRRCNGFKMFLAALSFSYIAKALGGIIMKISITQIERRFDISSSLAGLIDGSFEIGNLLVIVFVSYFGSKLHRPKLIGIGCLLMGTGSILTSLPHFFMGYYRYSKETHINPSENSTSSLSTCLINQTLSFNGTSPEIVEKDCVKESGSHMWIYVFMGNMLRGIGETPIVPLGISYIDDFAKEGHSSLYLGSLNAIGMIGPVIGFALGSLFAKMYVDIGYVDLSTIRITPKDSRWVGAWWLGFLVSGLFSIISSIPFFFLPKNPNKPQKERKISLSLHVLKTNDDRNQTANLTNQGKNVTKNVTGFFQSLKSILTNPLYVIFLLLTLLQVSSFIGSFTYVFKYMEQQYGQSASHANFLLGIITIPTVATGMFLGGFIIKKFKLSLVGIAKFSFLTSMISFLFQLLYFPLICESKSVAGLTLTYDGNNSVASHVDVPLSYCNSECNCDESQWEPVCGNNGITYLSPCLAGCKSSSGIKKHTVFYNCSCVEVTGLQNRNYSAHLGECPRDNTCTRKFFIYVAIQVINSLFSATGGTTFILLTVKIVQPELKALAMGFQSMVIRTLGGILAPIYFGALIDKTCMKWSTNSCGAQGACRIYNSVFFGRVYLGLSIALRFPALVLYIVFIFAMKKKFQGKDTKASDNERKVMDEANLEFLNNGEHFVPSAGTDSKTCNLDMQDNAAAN

CYP2C9 mRNA = assay: CYP induction in cultured human hepatocytes
OCT2 = target: T5, OCT2 (Homo sapiens, UniProt O15244); assay: Transporter inhibition in transfected HEK293 cells; type: cell-based
T5 sequence (O15244 1-555): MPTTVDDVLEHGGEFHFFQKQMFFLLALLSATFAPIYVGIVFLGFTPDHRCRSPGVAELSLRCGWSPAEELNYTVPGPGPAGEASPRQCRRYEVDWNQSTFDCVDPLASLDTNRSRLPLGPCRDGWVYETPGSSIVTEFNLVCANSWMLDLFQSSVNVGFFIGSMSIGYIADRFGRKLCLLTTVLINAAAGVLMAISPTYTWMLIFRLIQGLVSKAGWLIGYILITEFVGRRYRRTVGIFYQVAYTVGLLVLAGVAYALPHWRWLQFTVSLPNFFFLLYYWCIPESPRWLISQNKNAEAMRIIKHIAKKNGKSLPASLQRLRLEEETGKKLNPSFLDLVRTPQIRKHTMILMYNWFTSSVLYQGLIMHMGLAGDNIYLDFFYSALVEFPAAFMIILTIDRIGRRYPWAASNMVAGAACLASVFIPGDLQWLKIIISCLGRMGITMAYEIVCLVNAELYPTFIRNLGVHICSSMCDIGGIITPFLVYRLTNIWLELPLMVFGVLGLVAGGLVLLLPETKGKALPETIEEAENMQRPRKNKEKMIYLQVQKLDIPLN

[13] = human, cultured human hepatocytes

human P‐gp, sequence (P08183 whole entry): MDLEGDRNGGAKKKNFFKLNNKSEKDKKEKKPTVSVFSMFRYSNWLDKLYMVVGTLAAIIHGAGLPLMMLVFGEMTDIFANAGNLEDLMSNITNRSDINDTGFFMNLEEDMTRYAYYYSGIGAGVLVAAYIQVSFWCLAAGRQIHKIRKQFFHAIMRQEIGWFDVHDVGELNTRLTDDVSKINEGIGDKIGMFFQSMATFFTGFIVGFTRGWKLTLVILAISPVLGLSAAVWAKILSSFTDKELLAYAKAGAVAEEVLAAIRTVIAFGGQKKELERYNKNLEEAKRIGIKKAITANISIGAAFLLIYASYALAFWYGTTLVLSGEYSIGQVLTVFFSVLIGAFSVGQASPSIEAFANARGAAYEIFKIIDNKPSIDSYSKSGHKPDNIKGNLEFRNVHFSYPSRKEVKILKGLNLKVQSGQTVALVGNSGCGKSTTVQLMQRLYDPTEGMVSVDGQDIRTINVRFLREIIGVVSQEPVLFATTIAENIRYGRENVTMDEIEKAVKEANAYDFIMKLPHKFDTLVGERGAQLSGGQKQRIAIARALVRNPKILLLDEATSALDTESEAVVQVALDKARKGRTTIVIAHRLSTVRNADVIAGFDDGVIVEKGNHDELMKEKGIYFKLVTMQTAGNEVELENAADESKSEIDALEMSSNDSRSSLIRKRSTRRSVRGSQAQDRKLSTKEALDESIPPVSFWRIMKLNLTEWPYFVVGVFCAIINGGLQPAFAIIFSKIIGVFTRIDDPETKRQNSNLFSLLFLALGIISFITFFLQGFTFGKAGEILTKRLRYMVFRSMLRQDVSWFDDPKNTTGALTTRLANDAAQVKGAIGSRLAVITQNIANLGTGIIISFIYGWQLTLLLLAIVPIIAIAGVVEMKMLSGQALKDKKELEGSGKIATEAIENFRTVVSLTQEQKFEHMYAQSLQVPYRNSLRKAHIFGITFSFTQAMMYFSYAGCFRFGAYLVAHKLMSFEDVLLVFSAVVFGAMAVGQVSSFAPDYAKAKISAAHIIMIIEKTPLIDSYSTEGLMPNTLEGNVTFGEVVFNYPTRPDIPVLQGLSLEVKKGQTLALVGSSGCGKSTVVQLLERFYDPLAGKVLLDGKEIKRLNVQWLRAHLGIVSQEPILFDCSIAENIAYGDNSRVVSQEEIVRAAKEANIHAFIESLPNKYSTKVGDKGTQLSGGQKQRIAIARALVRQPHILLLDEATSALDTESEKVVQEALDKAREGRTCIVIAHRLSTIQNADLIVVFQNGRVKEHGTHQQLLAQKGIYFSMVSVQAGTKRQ

In the case of `CC1(C)CCC(CN2CCN(c3ccc(C(=O)NS(=O)(=O)c4ccc(NCC5CCOCC5)c([N+](=O)[O-])c4)c(Oc4cnc5[nH]ccc5c4)c3)CC2)=C(c2ccc(Cl)cc2)C1` [Venetoclax], the “estimated mean Vss/F from clinical data” value ([1]; patients) is listed as 3.67 L/kg, the “observed mean CL/F” value ([1]; venetoclax) is listed as 14.9 L/h and the Vd [2] is listed as 0.36 to 1.78 L/kg. For the same compound, the “decrease of venetoclax AUC” value (CYP3A4 [3]) was about 80% and the “decrease of venetoclax Cmax” value (CYP3A4 [3]) was ~ 70%.

In the case of `CC(C)c1nc(N(C)S(C)(=O)=O)nc(-c2ccc(F)cc2)c1/C=C/[C@@H](O)C[C@@H](O)CC(=O)O` [Rosuvastatin], the “relative contribution of OATP1B1/1B3 to uptake of rosuvastatin” value (OATP1B1/1B3) is listed as 65% and the “relative contribution of NTCP to uptake of rosuvastatin” value (NTCP) is listed as 35%.

In the case of `CCC1(c2ccccc2)C(=O)NC(=O)NC1=O` [phenobarbital, reference compound], the “increase in CYP2B6 mRNA levels” value (CYP2B6 mRNA; prototypical inducer (positive control), human hepatocytes) is reported as 13 ± 4.7 fold.

In the case of `CN(Cc1cnc2nc(N)nc(N)c2n1)c1ccc(C(=O)N[C@@H](CCC(=O)O)C(=O)O)cc1` [Methotrexate], the “reported methotrexate AUCR with probenecid” value (OAT3 [4]) is given as 1.57 fold.

For `Cc1ncc2n1-c1ccc(Cl)cc1C(c1ccccc1F)=NC2` [Midazolam], the “reduction of midazolam AUC, i.v.” value (CYP3A4 [5]; iv) is listed as 51% and the “reduction of midazolam AUC, oral” value (CYP3A4 [5]; po) is listed as 92%.

For `COc1ccc2[nH]c([S+]([O-])Cc3ncc(C)c(OC)c3C)nc2c1` (stereo not drawn) [omeprazole, reference compound], the “increase in CYP1A2 mRNA levels” value (CYP1A2 mRNA; prototypical inducer (positive control)) was 104 ± 97 fold.

In the case of `N#Cc1ccnc(N2C(=O)CC[C@H]2C(=O)N(c2cncc(F)c2)[C@H](C(=O)NC2CC(F)(F)C2)c2ccccc2Cl)c1` [Ivosidenib], the “increase of mean 4β‐OHC levels” value (CYP3A4 [7]; 500 mg ivosidenib) is listed as ~ 199%, the “increase of 4β‐OHC” value (CYP3A4 [7]; after 28 days of 100 mg b.i.d. and 100–1200 mg q.d. ivosidenib) is listed as “up to 371%” and the IC50 (human P‐gp) is listed as 19.6 µM. For the same compound, the EC50 (CYP3A4 mRNA [8]) was 12.5 ± 9.2 µM, the “effect on CYP2C19 mRNA levels” value (CYP2C19 mRNA) was “inconclusive” and the IC50 (OAT1) was over 65 µM. The “classification as CYP3A4 inducer as per regulatory guidance” value (CYP3A4 [9]) was “strong inducer”, the “CYP3A4 mRNA mean Emax” value (CYP3A4 mRNA [10]) was 78.2 ± 113 and the IC50 (OAT3 [11]) was 0.322 µM. The “CYP2C8 mRNA mean Emax” value (CYP2C8 mRNA; human hepatocytes, 3 donors) was 3.79 ± 1.28, the EC50 at 72 h (CYP2C8 mRNA; [13]) was 8.1 ± 3.3 µM and the “fm (fraction metabolized, CYP3A4)” value (CYP3A4 [12]) was 0.865. The “CYP1A2 mRNA induction” value (CYP1A2 mRNA; 3 donors, 0.05-90 μM once daily 3 days) was “no significant induction”, the IC50 (OATP1B1) was 9.56 µM and the IC50 (OATP1B3) was 22.8 µM. The “CYP2C9 mRNA mean Emax” value (CYP2C9 mRNA; human hepatocytes, 3 donors) was 3.39 ± 0.63, the EC50 at 72 h (CYP2C9 mRNA; [13]) was 3.23 ± 1.04 µM and the IC50 (OCT2) was over 65 µM. For the same compound, the “CYP2B6 mRNA mean Emax” value (CYP2B6 mRNA; human hepatocytes, 3 donors) was 2.85 ± 1.53 and the EC50 at 72 h (CYP2B6 mRNA; [13]) was 2.93 ± 0.65 µM.
